Patent US9315531B2, “Titanocene-gold derivatives comprising thiolato ligands” (Research Foundation of the City University of New York, priority 2014, dated 2016)

Key:
[1] = tested on: Caki-1; experiment: Cell viability assay (XTT), Caki-1; assay type: cell-based, human; conditions: 72 h incubation
Description: (§1) Cell Culture: Human renal cell carcinoma lines A498, Caki-1 and UO31, as well as the human prostate carcinoma cell lines DU145 and PC3 were newly obtained for these studies from the American Type Culture Collection (ATCC) (Manassas, Va., USA) and cultured in Roswell Park Memorial Institute (RPMI-1640) (Mediatech Inc., Manassas, Va.) media containing 10% fetal bovine serum (FBS, Life Technologies, Grand Island, N.Y.), 1% Minimum Essential Media (MEM) nonessential amino acids (NEAA, Mediatech) and 1% penicillin-streptomycin (PenStrep, Mediatech). HEK-293T cells were newly purchased from ATCC (Manassas, Va., USA) and maintained in Dulbecco's modified Eagle's medium (DMEM) (Mediatech) supplemented with 10% FBS, 1% NEAA and 1% PenStrep. Normal human renal epithelial cells (RPTC) were purchased from Lifeline Cell Technology (Lifeline Cell Technology, Frederick, Md., USA) and maintained in Lifeline's Renal Life Medium from Lifeline Cell Technology supplemented with 2.4 mM L-glutamine, 5 μg/mL rh insulin, 1.0 nM epinephrine, 10 nM triiodothyronine, 0.1 μg/mL hydrocortisone hemisuccinate, 10 ng/mL rhEGF, 0.50% FBS, 5 μg/mL transferrin PS. All cells were cultured at 37° C. and 5% CO2 in a humidified incubator.
The optical absorbance of each well in a 96-well plate was quantified using BioTek ELx808 absorbance microplate reader (BioTek Winooski, Vt.) set at 450 nm wavelength. The percentage of surviving cells was calculated from the ratio of absorbance of treated to untreated cells.

[2] = tested on: HEK-293T; experiment: Cell viability assay (XTT), HEK-293T; assay type: cell-based; conditions: 72 h incubation; non-tumorigenic human embryonic kidney cell line
Description: HEK-293T cells were newly purchased from ATCC (Manassas, Va., USA) and maintained in Dulbecco's modified Eagle's medium (DMEM) (Mediatech) supplemented with 10% FBS, 1% NEAA and 1% PenStrep. […] All cells were cultured at 37° C. and 5% CO2 in a humidified incubator.

[3] = tested on: RPTC; experiment: Cell viability assay (XTT), RPTC; assay type: cell-based; conditions: 72 h incubation; human renal proximal tubular cells
Description: as §1
Cell Viability Assay: Cells were seeded at a concentration of 5000 cells/90 μl per well of either RPMI or DMEM without phenol red and without antibiotics, supplemented with 10% FBS and 2 mM L-glutamine into tissue culture grade 96-well flat bottom microplates (BioLite Microwell Plate, Fisher Scientific, Waltham, Mass., USA) and grown for 24 h at 37° C. in a humidified incubator. Afterwards, the intermediate dilutions of the compounds were added to the wells (10 μL) to obtain a final concentration ranging from 0.1 to 200 μM, and the cells were incubated for 24 h or 72 h. […] The optical absorbance of each well in a 96-well plate was quantified using BioTek ELx808 absorbance microplate reader (BioTek Winooski, Vt.) set at 450 nm wavelength. The percentage of surviving cells was calculated from the ratio of absorbance of treated to untreated cells.

[4] = tested on: plasmid pBR322 DNA; experiment: Electrophoresis mobility shift assay; assay type: binding; conditions: metal/DNAbp ratios 0.25-2.0, 37° C., 20 h
Description: Agarose gel electrophoresis assays were performed whereby decreased electrophoretic mobility of both forms were taken as evidence of metal-DNA binding.
Mobility Shift Assay: 10 μL aliquots of pBR322 plasmid DNA (20 μg/mL) in buffer (5 mM Tris/HCl, 50 mM NaClO4, pH=7.39) were incubated with different concentrations of the compounds (2, 3, 4, 5), and titanocene dichloride) (in the range 0.25 and 4.0 metal complex:DNA bp) at 37° C. for 20 h in the dark. Samples of free DNA and cisplatin-DNA were prepared as controls. After the incubation period, the samples were loaded onto the 1% agarose gel. The samples were separated by electrophoresis for 1.5 h at 80 V in Tris-acetate/EDTA buffer (TAE). Afterwards, the gel was stained for 30 min with a solution of GelRed nucleic acid stain.

[5] = tested on: MAPKAPK3; experiment: Protein kinase expression in Caki-1 whole cell lysates (Western blot), MAPKAPK3; assay type: cell-based, human; conditions: Caki-1, by 12 hours post-treatment
Description: The Caki-1 cells were then lysed and a Western blot analysis was performed with anti-MAPKAPK-3 antibody. Blots were probed with anti-β-Actin antibody as a control for protein loading.
Cell lysis and immunoblotting: Caki-1 cells were seeded into 10-cm dishes at a density of 2.2×10^6 and incubated for 24 hours. […] After microcentrifuging for 5 minutes at 4° C., pellets were treated with ice-cold lysis buffer with cell extraction buffer (BioSource, Camarillo, Calif.) containing 0.1% protease inhibitors and 1% phosphatase inhibitors cocktail (Fisher Scientific, Pittsburgh, Pa.) for 10 minutes, then sonicated for 10 seconds three times, and placed on ice. The lysed cells were centrifuged at 10,000×g at 4° C. for 10 minutes to remove the pellets representing the insoluble cell fraction.
The protein concentration was determined with BCA protein dye reagent (Pierce, Fisher Scientific Pittsburgh, Pa.). […]

[6] = tested on: thioredoxin reductase
Description: After 5, 12 or 24 hours of treatment incubation cells were washed three times in PBS, and lysed by douncing using scrapers and sheer force though syringe with a 34 gauge needle in assay buffer (Abeam Thioredoxin Reductase Assay kit, ab83463) added to 1 mM protease inhibitor cocktail (Abeam, ab65621). The lysates were centrifuged at 10,000×g for 15 minutes at 4° C. to isolate insoluble material. The total protein concentrations of soluble lysates were measured using the BCA Protein Assay (Life Technologies). The soluble lysates were incubated for 20 minutes in assay buffer with a proprietary thioredoxin reductase specific inhibitor before adding a specific substrate, DTNB (5, 5′-dithiobis(2-nitrobenzoic) acid), and measuring activity at 1 minute intervals for 30 minutes using the BioTek fluorescence microplate reader (BioTek U.S., Winooski, Vt.) set at =412 nm. Lysates were tested in duplicate. TrxR activity was calculated based on the linear amount of TNB produced per minute per mg of total protein and corrected for background activity from enzymes other than TrxR in the lysates.

[7] = biological target: T1, isolated TrRx (Homo sapiens, UniProt Q16881); conditions: isolated enzyme; read-out: concentration inhibiting 50% of the enzymatic activity of isolated TrRx; cited from earlier work
T1 sequence (Q16881 151-649 limits assumed): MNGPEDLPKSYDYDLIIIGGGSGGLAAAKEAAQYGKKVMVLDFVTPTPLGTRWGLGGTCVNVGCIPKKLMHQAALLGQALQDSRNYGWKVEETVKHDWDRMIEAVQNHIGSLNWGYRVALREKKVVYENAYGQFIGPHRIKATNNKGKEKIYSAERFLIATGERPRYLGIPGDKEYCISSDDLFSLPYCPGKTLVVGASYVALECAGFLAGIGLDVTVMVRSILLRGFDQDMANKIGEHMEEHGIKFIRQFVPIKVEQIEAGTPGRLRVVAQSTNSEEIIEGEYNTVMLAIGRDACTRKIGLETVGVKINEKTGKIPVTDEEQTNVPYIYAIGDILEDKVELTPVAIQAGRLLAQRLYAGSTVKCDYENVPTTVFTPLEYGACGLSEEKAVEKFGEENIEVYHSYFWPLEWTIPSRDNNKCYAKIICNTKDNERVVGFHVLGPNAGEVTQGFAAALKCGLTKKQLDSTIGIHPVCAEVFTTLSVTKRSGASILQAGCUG

[8] = tested on: TrRx in human breast MCF-7 cancer cells; conditions: 4 μM; cited from earlier work
[9] = tested on: TrRx in human ovarian A2780 cancer cells; conditions: 10 μM; cited from earlier work
[10] = Stability in solution (DMSO-d6, CDCl3, DMSO/PBS); assay type: physicochemical
Description: (§2) Both compound 2 and compound 3 were less acidic than titanocene dichloride and were soluble in DMSO/water, DMSO/PBS and DMSO/media (1:99) mixtures at micromolar concentrations. These compounds were unusually stable methyl-containing titanocene moieties that were stable as solids at room temperature, while exposed to air in CDCl3 solution for at least five days.

[11] = Solubility in DMSO/aqueous mixtures; assay type: physicochemical; conditions: at micromolar concentrations
Description: as §2

[Au(Hmba)(MPPF)] [Precursor 5]
IC50 [1]: 3.6 ± 0.342 µM
IC50 [2]: 3 ± 0.07 µM
IC50 [3]: 3.78 ± 0.13 µM
effect on electrophoretic mobility of plasmid DNA forms [4]: did not affect the mobility

CC(=O)OC[C@H]1O[C@@H]([S-])[C@H](OC(C)=O)[C@@H](OC(C)=O)[C@@H]1OC(C)=O.CCP(CC)CC.[Au+] [Auranofin]
IC50 [1]: 3.08 ± 0.13 µM
expression of MAPKAPK3 [5]: failed to down-regulate
inhibition of thioredoxin reductase activity ([6]; Caki-1 cells, 5 μM, five hour incubation): 74.1%
IC50 ([6]; read-out: IC50 thioredoxin reductase in Caki-1 cells, after twelve hours): 0.61 µM
IC50 [7]: 0.02 µM
inhibition of total TrRx activity in MCF-7 cells [8]: 18%
inhibition of total TrRx activity in A2780 cells [9]: 30%

N.N.[Cl][Pt][Cl] [Cisplatin, reference compound]
IC50 [1]: 29 ± 4.11 µM
IC50 [2]: 3.27 ± 0.13 µM
effect on electrophoretic mobility of plasmid DNA forms [4]: decreased mobility of the CCC form and increased mobility of the OC form

[(η-C5H5)2TiMe(μ-mba)Au(MPPF)] [Compound 3]
IC50 [1]: 4.11 ± 0.64 µM
IC50 [2]: 3.09 ± 0.003 µM
IC50 [3]: 3.76 ± 0.21 µM
half-life in DMSO-d6 ([10]; DMSO-d6): thirty-two
half-life fold larger than corresponding compound 6 / compound 7 ([10]; DMSO-d6, same solvent): sixty-four
UV-vis spectra over time ([10]; micromolar concentration in 1:99 DMSO/PBS, 23 h, physiological pH): did not change over time
solubility in DMSO/water, DMSO/PBS and DMSO/media (1:99) mixtures [11]: soluble
effect on electrophoretic mobility of plasmid DNA forms [4]: did not affect the mobility

COc1ccc(C[C]2([Ti+2][C]3(Cc4ccc(OC)cc4)C=CC=C3)C=CC=C2)cc1.[Cl-].[Cl-] [Titanocene Y, reference compound]
IC50 [1]: 29.4 ± 4.18 µM
IC50 [2]: > 200 µM

[Cl-].[Cl-].[Ti+4].c1cc[cH-]c1.c1cc[cH-]c1 [[(π-C5H5)2TiCl2], reference compound]
IC50 [1]: > 200 µM
IC50 [2]: > 200 µM
